Measurements: article PMC5931107, “Clinical pharmacodynamic/exposure characterisation of the multikinase inhibitor ilorasertib (ABT-348) in a phase 1 dose-escalation trial” (British Journal of Cancer, 2018)
Where two headings read alike, the source gives them in different places.

Key:
Aurora B [1] = test system: Aurora B; design: method as in PMID 22935731; settings: phosphorylation of histone H3, read-out: Cellular PD marker IC50 (95% confidence limits); cited from earlier work
VEGFR3 = test system: VEGFR3; design: method as in PMID 22935731; settings: 1 mM ATP; read-out: Biochemical IC50 (95% confidence limits); cited from earlier work
PDGFR-α [2] = test system: PDGFR-α; design: method as in PMID 22935731; settings: 1 mM ATP; read-out: Biochemical IC50 (95% confidence limits); cited from earlier work
Aurora A = test system: Aurora A; design: method as in PMID 22935731; settings: Aurora A autophosphorylation, nocodazole-arrested HeLa cells; read-out: Cellular PD marker IC50 (95% confidence limits); cited from earlier work
PDGFR-α [3] = test system: PDGFR-α; design: method as in PMID 22935731; settings: PDGFR-α cellular phosphorylation, ligand stimulated; read-out: Cellular PD marker IC50 (95% confidence limits); cited from earlier work
Aurora kinase B = assay: pHH3 immunohistochemistry in skin punch biopsies; assay type: in vivo, human; settings: 8 mg i.v. and 60‒340 mg PO BID
Aurora B [4] = test system: Aurora B; design: method as in PMID 22935731; settings: 1 mM ATP; read-out: Biochemical IC50 (95% confidence limits); cited from earlier work
PDGFR-β = test system: PDGFR-β; design: method as in PMID 22935731; settings: 1 mM ATP; read-out: Biochemical IC50 (95% confidence limits); cited from earlier work
Aurora C = test system: Aurora C; design: method as in PMID 22935731; settings: 1 mM ATP; read-out: Biochemical IC50 (95% confidence limits); cited from earlier work

Nc1ncc(-c2cnn(CCO)c2)c2scc(-c3ccc(NC(=O)Nc4cccc(F)c4)cc3)c12 [ilorasertib, Ilorasertib]
IC50 (VEGFR3): 43 nM
IC50 (PDGFR-α [2]): 11 nM
IC50 (PDGFR-α [3]): 16 nM
pHH3 in epidermis with increasing exposure (Aurora kinase B): dose-dependent decreases of pHH3
IC50 (Aurora C): 1 nM
